According to patent US12029816B2, “Compositions and methods of making brittle-matrix particles through blister pack freezing” (BOARD OF REGENTS, THE UNIVERSITY OF TEXAS SYSTEM, priority 2010, dated 2024):

Details: pH 7.4
Description: HFA-exposed TFF ITZ powder (1 mg) was added to 50 mL of dissolution media to yield an initial drug loading of 20 μg/mL. Sample aliquots (1.5 mL) were taken from the dissolution vessels at various time points. The aliquots were filtered immediately using a 0.2 μm syringe filter. […] TFF ITZ powder that had been previously exposed to HFA 227 (1 mg) was added to the dissolution media (50 mL) to achieve an initial loading of 20 μg ITZ/mL. All samples were filtered with 0.2 μm pore size filters.

- equilibrium solubility: 1.4 µg/mL
Structure (SMILES): CCC(C)n1ncn(-c2ccc(N3CCN(c4ccc(OCC5COC(Cn6cncn6)(c6ccc(Cl)cc6Cl)O5)cc4)CC3)cc2)c1=O (stereo not shown) [crystalline ITZ, itraconazole]
